Experimental data published in patent US9693556B2, “Herbicidal pyridazinone derivatives” (SYNGENTA LIMITED, priority 2011, dated 2017).

Tests used:
Format in all cases: in vivo
[1] = system: Alopecurus myosuroides (ALOMY); assay: Pre-emergence herbicidal glasshouse test on Alopecurus myosuroides; settings: pre-emergence; 1000 g/h; evaluated after 13 days
In short: (§1)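 Application rate 1000 g/h, formulated in acetone/water (50:50) with 0.5% Tween 20 and sprayed onto pots sown 1 day (pre-emergence) or 8 days (post-emergence) earlier. Evaluation at 13 days rated damage from 1 (0-19%) to 5 (80-100%).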

Setaria faberi (SETFA) [2] = assay: Pre-emergence herbicidal glasshouse test on Setaria faberi; settings: pre-emergence; 1000 g/h; evaluated after 13 days
In short: as §1

[3] = system: Echinochloa crus-galli (ECHCG); assay: Pre-emergence herbicidal glasshouse test on Echinochloa crus-galli; settings: pre-emergence; 1000 g/h; evaluated after 13 days
In short: as §1

Solanum nigrum (SOLNI) [4] = assay: Pre-emergence herbicidal glasshouse test on Solanum nigrum; settings: pre-emergence; 1000 g/h; evaluated after 13 days
In short: as §1

[5] = system: Amaranthus retoflexus (AMARE); assay: Pre-emergence herbicidal glasshouse test on Amaranthus retoflexus; settings: pre-emergence; 1000 g/h; evaluated after 13 days
In short: as §1

[6] = system: Ipomoea hederacea (IPOHE); assay: Pre-emergence herbicidal glasshouse test on Ipomoea hederacea; settings: pre-emergence; 1000 g/h; evaluated after 13 days
In short: as §1

[7] = system: Alopecurus myosuroides (ALOMY); assay: Post-emergence herbicidal glasshouse test on Alopecurus myosuroides; settings: post-emergence; 1000 g/h; evaluated after 13 days
In short: as §1

Setaria faberi (SETFA) [8] = assay: Post-emergence herbicidal glasshouse test on Setaria faberi; settings: post-emergence; 1000 g/h; evaluated after 13 days
In short: as §1

[9] = system: Echinochloa crus-galli (ECHCG); assay: Post-emergence herbicidal glasshouse test on Echinochloa crus-galli; settings: post-emergence; 1000 g/h; evaluated after 13 days
In short: as §1

Solanum nigrum (SOLNI) [10] = assay: Post-emergence herbicidal glasshouse test on Solanum nigrum; settings: post-emergence; 1000 g/h; evaluated after 13 days
In short: as §1

[11] = system: Amaranthus retoflexus (AMARE); assay: Post-emergence herbicidal glasshouse test on Amaranthus retoflexus; settings: post-emergence; 1000 g/h; evaluated after 13 days
In short: as §1

[12] = system: Ipomoea hederacea (IPOHE); assay: Post-emergence herbicidal glasshouse test on Ipomoea hederacea; settings: post-emergence; 1000 g/h; evaluated after 13 days
In short: as §1

Compound | PRE Application ALOMY herbicidal damage (five point scale) [1] | PRE Application SETFA herbicidal damage (five point scale) (Setaria faberi (SETFA) [2]) | PRE Application ECHCG herbicidal damage (five point scale) [3] | PRE Application SOLNI herbicidal damage (five point scale) (Solanum nigrum (SOLNI) [4]) | PRE Application AMARE herbicidal damage (five point scale) [5] | PRE Application IPOHE herbicidal damage (five point scale) [6] | POST Application ALOMY herbicidal damage (five point scale) [7] | POST Application SETFA herbicidal damage (five point scale) (Setaria faberi (SETFA) [8]) | POST Application ECHCG herbicidal damage (five point scale) [9] | POST Application SOLNI herbicidal damage (five point scale) (Solanum nigrum (SOLNI) [10]) | POST Application AMARE herbicidal damage (five point scale) [11] | POST Application IPOHE herbicidal damage (five point scale) [12]
Cn1ncc(-n2ccc(C(F)(F)F)c(-c3cc(F)c(F)c(F)c3)c2=O)c(O)c1=O [Compound 7.017] | 5 (5=80-100% damage) | 5 (5=80-100% damage) | 5 (5=80-100% damage) | 5 (5=80-100% damage) | 5 (5=80-100% damage) | 4 (4=60-79% damage) | 5 (5=80-100% damage) | 5 (5=80-100% damage) | 5 (5=80-100% damage) | 5 (5=80-100% damage) | 5 (5=80-100% damage) | 5 (5=80-100% damage)
Cn1ncc(-n2ccc(C(F)(F)F)c(-c3cccc(C(F)(F)F)c3)c2=O)c(O)c1=O [Compound 7.018] | 5 (5=80-100% damage) | 5 (5=80-100% damage) | 5 (5=80-100% damage) | 5 (5=80-100% damage) | 5 (5=80-100% damage) | 2 (2=20-39% damage) | 5 (5=80-100% damage) | 5 (5=80-100% damage) | 5 (5=80-100% damage) | 5 (5=80-100% damage) | 5 (5=80-100% damage) | 3 (3=40-59% damage)
Cn1ncc(-n2ccc(C(F)(F)F)c(-c3cccc(C#N)c3)c2=O)c(O)c1=O [Compound 7.019] | 5 (5=80-100% damage) | 5 (5=80-100% damage) | 5 (5=80-100% damage) | 5 (5=80-100% damage) | 5 (5=80-100% damage) | 2 (2=20-39% damage) | 5 (5=80-100% damage) | 5 (5=80-100% damage) | 5 (5=80-100% damage) | 5 (5=80-100% damage) | 5 (5=80-100% damage) | 2 (2=20-39% damage)
COc1cc(-c2c(C(F)(F)F)ccn(-c3cnn(C)c(=O)c3O)c2=O)cc(OC)c1OC [Compound 7.021] | 5 (5=80-100% damage) | 5 (5=80-100% damage) | 5 (5=80-100% damage) | 5 (5=80-100% damage) | 5 (5=80-100% damage) | 4 (4=60-79% damage) | 5 (5=80-100% damage) | 5 (5=80-100% damage) | 5 (5=80-100% damage) | 5 (5=80-100% damage) | 5 (5=80-100% damage) | 4 (4=60-79% damage)
Cn1ncc(-n2ccc(C(F)(F)F)c(-c3cc(Cl)cc(Cl)c3)c2=O)c(O)c1=O [Compound 7.022] | 5 (5=80-100% damage) | 5 (5=80-100% damage) | 5 (5=80-100% damage) | 5 (5=80-100% damage) | 5 (5=80-100% damage) | 2 (2=20-39% damage) | 4 (4=60-79% damage) | 5 (5=80-100% damage) | 5 (5=80-100% damage) | 5 (5=80-100% damage) | 5 (5=80-100% damage) | 2 (2=20-39% damage)
Cn1ncc(-n2ccc(C(F)(F)F)c(-c3cccc(S(C)(=O)=O)c3)c2=O)c(O)c1=O [Compound 7.023] | 2 (2=20-39% damage) | 4 (4=60-79% damage) | 2 (2=20-39% damage) | 5 (5=80-100% damage) | 5 (5=80-100% damage) | 2 (2=20-39% damage) | 1 (1=0-19% damage) | 4 (4=60-79% damage) | 4 (4=60-79% damage) | 5 (5=80-100% damage) | 5 (5=80-100% damage) | 1 (1=0-19% damage)
Cc1ccc(-c2c(C(F)(F)F)ccn(-c3cnn(C)c(=O)c3O)c2=O)cc1[N+](=O)[O-] [Compound 7.027] | 3 (3=40-59% damage) | 3 (3=40-59% damage) | 5 (5=80-100% damage) | 5 (5=80-100% damage) | 5 (5=80-100% damage) | 1 (1=0-19% damage) | 3 (3=40-59% damage) | 5 (5=80-100% damage) | 5 (5=80-100% damage) | 5 (5=80-100% damage) | 5 (5=80-100% damage) | 2 (2=20-39% damage)
Cn1ncc(-n2ccc(C(F)(F)F)c(-c3cccc(Cl)c3Cl)c2=O)c(O)c1=O [Compound 7.029] | 2 (2=20-39% damage) | 1 (1=0-19% damage) | 2 (2=20-39% damage) | 5 (5=80-100% damage) | 5 (5=80-100% damage) | 1 (1=0-19% damage) | 3 (3=40-59% damage) | 2 (2=20-39% damage) | 5 (5=80-100% damage) | 5 (5=80-100% damage) | 5 (5=80-100% damage) | 4 (4=60-79% damage)
